Patent publication US20050101595A1, “N-containing cycloalkyl-substituted amino-thiazole derivatives and pharmaceutical compositions for inhibiting cell proliferation and methods for their use” (PFIZER INC., priority 2003, published 2005)

Key:
[1] = target: CDK2/Cyclin A (Homo sapiens, UniProt P24941); test: Inhibition of CDK2/Cyclin A Retinoblastoma Kinase Activity; type: biochemical; conditions: read-out: % inhibition of CDK2 (@ 0.05 μM), compound at 0.05 μM
Method: Cyclin-dependent kinase activity was measured by quantifying the enzyme-catalyzed, time-dependent incorporation of radioactive phosphate from [^32P]ATP or [^33P]ATP into a protein substrate. Unless noted otherwise, assays were performed in 96-well plates in a total volume of 50 μL, in the presence of 10 mM HEPES (N-[2-hydroxyethyl]piperazine-N′-[2-ethanesulfonic acid]) (pH 7.4), 10 mM MgCl2, 25 μM adenosine triphosphate (ATP), 1 mg/mL ovalbumin, 5 μg/mL leupeptin, 1 mM dithiothreitol, 10 mM β-glycerophosphate, 0.1 mM sodium vanadate, 1 mM sodium fluoride, 2.5 mM ethylene glycol-bis(β-aminoethyl ether)-N,N,N′N′-tetraacetic acid (EGTA), 2% (v/v) dimethylsulfoxide, and 0.03-0.4 μCi [^32/33P]ATP per reaction. Reactions were initiated with enzyme, incubated at 30° C., and terminated after 20 minutes by the addition of ethylenediaminetetraacetic acid (EDTA) to 250 mM. The phosphorylated substrate was then captured on a nitrocellulose or phosphocellulose membrane using a 96-well filtration manifold, and unincorporated radioactivity was removed by repeated washing with 0.85% phosphoric acid. Radioactivity was quantified by exposing the dried membranes to a phosphorimager.
Inhibition was measured relative to control wells that contained all reaction components including 2% (v/v) DMSO but no compound, after subtraction of background radioactivity measured in the absence of enzyme. Apparent Ki values of discrete compounds were measured by assaying enzyme activity in the presence of different inhibitor compound concentrations and subtracting the background radioactivity measured in the absence of enzyme. The kinetic parameters (kcat, Km for ATP) were measured for each enzyme under the usual assay conditions by determining the dependence of initial rates on ATP concentration. Inhibition data were fit to an equation for competitive inhibition using Kaleidagraph (Synergy Software), or were fit to an equation for competitive tight-binding inhibition using the software KineTic (BioKin, Ltd.).
Inhibition of CDK2/Cyclin A Retinoblastoma Kinase Activity:
CDK2 was purified using published methodology (Rosenblatt et al., “Purification and Crystallization of Human Cyclin-dependent Kinase 2,” J. Mol. Biol., vol. 230, 1993, pp. 1317-1319) from insect cells that had been infected with a baculovirus expression vector. […] A complex of CDK2 and proteolyzed cyclin A was prepared and purified by gel filtration. The substrate for this assay was the same Rb substrate fragment used for the CDK4 assays, and the methodology of the CDK2/delta cyclin A and the CDK4/delta cyclin D3 assays was essentially the same, except that CDK2 was present at 10 nM or 19 nM. The duration of the assay was 60 or 75 minutes, during which the time-dependence of product formation was linear and initial rate conditions were met. And, the percent inhibitions of the compounds of Example O through Example R were calculated as described above and shown in Table 2.

[2] = test system: HCT-116 cell line; test: Inhibition of cell growth, tetrazolium salt (MTT) assay; type: cell-based; conditions: Homo sapiens, HCT-116, HCT-116 cells; MTT; compound at 0.175 uM
Summary of the method: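 First, cells were seeded in McCoy's 5A medium and held 4 h. Next, inhibitor concentrations in 0.5% (v/v) DMSO were applied for three to five days at 37° C, 5% CO2. Finally, after 4 h with 0.2 mg/mL MTT and medium removal, solubilized formazan was measured at 540 nm.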

## Nc1nc(NC2CCN(S(=O)(=O)CCCN3CCC(CO)CC3)CC2)sc1C(=O)c1c(F)cccc1F [Example V133]
[1]
  inhibition at 0.05 µM: 71%
[2]
  inhibition at 0.175 µM: 0%

## CCCN(CCCS(=O)(=O)N1CCC(Nc2nc(N)c(C(=O)c3c(F)cccc3F)s2)CC1)CC1CC1 [Example V61]
[1]
  inhibition at 0.05 µM: 81%
[2]
  inhibition at 0.175 µM: 65%

## COCCNCCCS(=O)(=O)N1CCC(Nc2nc(N)c(C(=O)c3c(F)cccc3F)s2)CC1 [Example V67]
[1]
  inhibition at 0.05 µM: 87%
[2]
  inhibition at 0.175 µM: 21%

## Nc1nc(NC2CCN(S(=O)(=O)CCCNCCCn3ccnc3)CC2)sc1C(=O)c1c(F)cccc1F [Example V3]
[1]
  inhibition at 0.05 µM: 84%
[2]
  inhibition at 0.175 µM: 17%

## C=CCN(C)CCCS(=O)(=O)N1CCC(Nc2nc(N)c(C(=O)c3c(F)cccc3F)s2)CC1 [Example V135]
[1]
  inhibition at 0.05 µM: 78%
[2]
  inhibition at 0.175 µM: 82%

## CSCCCNCCCS(=O)(=O)N1CCC(Nc2nc(N)c(C(=O)c3c(F)cccc3F)s2)CC1 [Example V127]
[1]
  inhibition at 0.05 µM: 87%
[2]
  inhibition at 0.175 µM: 13%

## Cc1cccc(CNCCCS(=O)(=O)N2CCC(Nc3nc(N)c(C(=O)c4c(F)cccc4F)s3)CC2)c1 [Example V79]
[1]
  inhibition at 0.05 µM: 93%
[2]
  inhibition at 0.175 µM: 76%

## CCCN(CCC#N)CCCS(=O)(=O)N1CCC(Nc2nc(N)c(C(=O)c3c(F)cccc3F)s2)CC1 [Example V105]
[1]
  inhibition at 0.05 µM: 84%
[2]
  inhibition at 0.175 µM: 0%

## CN(C)CCCCNCCCS(=O)(=O)N1CCC(Nc2nc(N)c(C(=O)c3c(F)cccc3F)s2)CC1 [Example V154]
[1]
  inhibition at 0.05 µM: 82%
[2]
  inhibition at 0.175 µM: 15%

## Nc1nc(NC2CCN(S(=O)(=O)CCCN3CCC(CCO)CC3)CC2)sc1C(=O)c1c(F)cccc1F [Example V134]
[1]
  inhibition at 0.05 µM: 80%
[2]
  inhibition at 0.175 µM: 8%

## CCc1ccnc(NCCCS(=O)(=O)N2CCC(Nc3nc(N)c(C(=O)c4c(F)cccc4F)s3)CC2)c1 [Example V111]
[1]
  inhibition at 0.05 µM: 86%
[2]
  inhibition at 0.175 µM: 5%

## CC(C)OCCNCCCS(=O)(=O)N1CCC(Nc2nc(N)c(C(=O)c3c(F)cccc3F)s2)CC1 [Example V131]
[1]
  inhibition at 0.05 µM: 82%
[2]
  inhibition at 0.175 µM: 5%

## CC(O)CCNCCCS(=O)(=O)N1CCC(Nc2nc(N)c(C(=O)c3c(F)cccc3F)s2)CC1 (stereo not drawn) [Example V81]
[1]
  inhibition at 0.05 µM: 78%
[2]
  inhibition at 0.175 µM: 5%

## CCCCC(CO)NCCCS(=O)(=O)N1CCC(Nc2nc(N)c(C(=O)c3c(F)cccc3F)s2)CC1 (stereo not drawn) [Example V120]
[1]
  inhibition at 0.05 µM: 89%
[2]
  inhibition at 0.175 µM: 6%

## Nc1nc(NC2CCN(S(=O)(=O)CCCN3CCNC(=O)C3)CC2)sc1C(=O)c1c(F)cccc1F [Example V166]
[1]
  inhibition at 0.05 µM: 72%
[2]
  inhibition at 0.175 µM: 3%

## CCCNCCCS(=O)(=O)N1CCC(Nc2nc(N)c(C(=O)c3c(F)cccc3F)s2)CC1 [Example V56]
[1]
  inhibition at 0.05 µM: 83%
[2]
  inhibition at 0.175 µM: 19%

## CC(=O)N1CCN(CCCS(=O)(=O)N2CCC(Nc3nc(N)c(C(=O)c4c(F)cccc4F)s3)CC2)CC1 [Example V29]
[1]
  inhibition at 0.05 µM: 81%
[2]
  inhibition at 0.175 µM: 0%

## Nc1nc(NC2CCN(S(=O)(=O)CCCNCc3ccccc3F)CC2)sc1C(=O)c1c(F)cccc1F [Example V26]
[1]
  inhibition at 0.05 µM: 92%
[2]
  inhibition at 0.175 µM: 76%

## Nc1nc(NC2CCN(S(=O)(=O)CCCN3CCOCC3)CC2)sc1C(=O)c1c(F)cccc1F [Example V88]
[1]
  inhibition at 0.05 µM: 77%
[2]
  inhibition at 0.175 µM: 17%

## Nc1nc(NC2CCN(S(=O)(=O)CCCNCCC3CCOCC3)CC2)sc1C(=O)c1c(F)cccc1F [Example V164]
[1]
  inhibition at 0.05 µM: 85%
[2]
  inhibition at 0.175 µM: 0%

## Nc1nc(NC2CCN(S(=O)(=O)CCCN3CCN4CCCC4C3)CC2)sc1C(=O)c1c(F)cccc1F (stereo not drawn) [Example V152]
[1]
  inhibition at 0.05 µM: 78%
[2]
  inhibition at 0.175 µM: 0%
